Reference: patent US20230364180A1, “COMPOSITION FOR IMPROVING MILD COGNITIVE IMPAIRMENT AND METHOD FOR IMPROVING MILD COGNITIVE IMPAIRMENT” (TOKAI BUSSAN CO., LTD., priority 2019, published 2023)

Tests used:
[1] = Proteolytic action on target protein by peroxynitrite radical (FIG. 2B); type: biochemical; conditions: prevention of degradation of target protein
[2] = stated as known; cited from earlier work
[3] = stated as known; cited from earlier work; remark: listed apart in the source
[4] = Proteolytic action on target protein by hydroxyl radical (FIG. 2A); type: biochemical; conditions: prevention of degradation of target protein
From the text: FIG. 2A is a hydroxyl radical, in which 1 is untreated target protein, 2 is no antioxidant added, 3 is IMDP added, 4 is vitamin C added, 5 is ferulic acid added, 6 is IMDP+vitamin C+ferulic acid added; and […]

For `O=C1O[C@H]([C@@H](O)CO)C(O)=C1O` [vitamin C], the “antioxidant activity against peroxynitrite radicals” value [1] is listed as “strong” and the “antioxidant activity against peroxynitrite radicals (known)” value [2] is listed as “strong”.

In the case of vitamin E, the “antioxidant activity against hydroxyl radicals (known)” value [3] is listed as “strong”.

For `COc1cc(/C=C/C(=O)O)ccc1O` [ferulic acid], the “antioxidant activity against hydroxyl radicals” value [4] was “strong”.

In the case of `CC1=C(/C=C/C(C)=C/C=C/C(C)=C/C=C/C=C(C)/C=C/C=C(C)/C=C/C2=C(C)C(=O)[C@@H](O)CC2(C)C)C(C)(C)C[C@H](O)C1=O` [astaxanthin], the “antioxidant activity against hydroxyl radicals (known)” value [3] is given as “strong”.
